{
  "source": "patent US6479456B1",
  "about": "“Antimicrobial perfume compositions” (Firmenich SA, priority 2000, dated 2002)",
  "tested_on": "Pityrosporum ovale",
  "assay": "agar surface coating test (ASCT) against Pityrosporum ovale, in shampoo",
  "format": "cell-based",
  "settings": "shampoo containing Octopirox compared with a shampoo without Octopirox",
  "method": "Whatever the chosen test according to the invention, a culture of the selected germ was set up on Petri dishes under the same test conditions in parallel with a control solution composed in general of sterilised water or of a saline solution. After the period(s) of incubation considered according to the selected test, the surface area of the dish which was free of bacteria and/or fungi was measured for both the tested compound and the control solution. By calculating a surface ratio, a relative surface value, enabling the selection of the compounds with an antimicrobial activity of at least 80% in one of these tests of effectiveness, was defined. The following germs were used in these methods: Pityrosporum ovale, Staphylococcus aureus, Staphylococcus epidermidis, Escherichia coli, Pseudomonas aeruginosa, Candida albicans, Trichophyton mentagrophytes. […]\nThe tested product and the agar surface are again left in contact for 30 s under the same conditions as above, followed by the stage of rinsing and of 24-h incubation at ambient temperature, and the antimicrobial evolution is observed again after this second phase of the test. […] The microbicidal or microbiostatic action can be established after each phase of the test, and recorded. […]",
  "data": [
    {"smiles": "Cc1cc(CC(C)CC(C)(C)C)n(O)c(=O)c1.NCCO", "note": "(stereo not shown) [Octopirox®, Piroctone olamine]", "values": [
      {"measurement": "reduction of growth of P. ovale", "value": 60, "unit": "%"}
    ]}
  ]
}
